Reference: US10570177B2, “P3 peptidylic inhibitors for treating CAG-repeat RNA toxicity in polyglutamine diseases” (The Chinese University of Hong Kong, priority 2017, dated 2020)
“And” between values parts separate entries of the source, which are not always exact repeats. Equal values may be shown once. “Also recorded” adds a separate entry of the source. Starred links: 1 amine or outer side, 2 acyl side, 3 side chain; linkers in the order of their positions; H or OH if unused. Non-standard residues stand in square brackets, D forms with d. No end group written: not given here. gPNA = guanine base linked to N-(2-aminoethyl)-glycine backbone, Nc1nc2c(ncn2CC(=O)N(CCN[*:1])CC(=O)[*:2])c(=O)[nH]1; tPNA = thymine base linked to N-(2-aminoethyl)-glycine backbone, Cc1cn(CC(=O)N(CCN[*:1])CC(=O)[*:2])c(=O)[nH]c1=O; cPNA = cytosine base linked to N-(2-aminoethyl)-glycine backbone, Nc1ccn(CC(=O)N(CCN[*:1])CC(=O)[*:2])c(=O)n1; aPNA = adenine base linked to N-(2-aminoethyl)-glycine backbone, Nc1ncnc2c1ncn2CC(=O)N(CCN[*:1])CC(=O)[*:2]; hArg = N=C(N)NCCCC[C@H](N)C(=O)O; Orn = NCCC[C@H](N)C(=O)O; Dap = NC[C@H](N)C(=O)O; ∗∗ = not defined here

Experiments:
MJDCAG78 RNA = experiment: Isothermal titration calorimetry binding assay, expanded MJDCAG78 RNA; conditions: for KD / Kd: ITC at 25° C., 0.7 mM peptide titrated into 0.5 μM MJDCAG78 RNA, one binding site model, mean ± S.E.M.; for improvement of binding affinity to expanded CAG RNA over P3: relative to P3
Experimental: Experiments were carried out using a MicroCal iTC200 isothermal titration calorimeter (GE Healthcare) at 25° C. Data were analyzed using the Origin® scientific plotting software version 7 (Microcal Software Inc.). All RNAs and peptides were dissolved in binding buffer (20 mM MOPS, pH 7.0; 300 mM NaCl) and 0.7 mM of peptide was titrated into 0.5 μM of RNA for each experiment. The concentration of RNA was estimated with appropriate extinction coefficients at 260 nm on a Nanodrop 2000 (Thermo Scientific). A reference power of 8 μcal/s was used with an initial 0.5 μl of injection of peptide followed by 2 μl for all subsequent titrations points with a 60 sec initial equilibrium delay and 150 sec pause between injections. The samples were stirred at a speed of 1000 rpm throughout the experiment. The thermal titration data were fitted to the ‘one binding site model’ to determine the dissociation constant (KD). Each experiment was repeated at least 3 times with consistent results obtained.

DsRedCAG100 flies = experiment: Pseudopupil assay in DsRedCAG100 Drosophila (expanded CAG RNA neurodegeneration); format: in vivo
Text: Here the DsRedCAG0/100Drosophila model was utilized to investigate the suppressive effects of the P3 analogs on RNA toxicity. In this model, the CAG repeat is located in the 3′ untranslated region of the DsRed reporter gene-=. The transcribed expanded CAG RNA is not translated into polyQ protein, and thus the toxicity is solely attributed to the expression of DsRedCAG100 RNA. In brief, the expression of expanded CAG RNA causes severe retinal degeneration in the animal that can be quantified by a pseudopupil assay^7. Inhibitors that can suppress neurotoxicity will result in the recovery of the number of rhabdomeres within the ommatidium. To test the derivatives, third instar larvae were fed different amounts of peptide dissolved in sucrose solution for 2 hr and then allowed to culture in standard fly food until the flies were 12 days old, at which time they were sacrificed for the pseudopupil assay.
Flies were raised at 21.5° C. on cornmeal medium supplemented with dry yeast. Fly lines bearing UAS-DsRedCAG0 and UAS-DsRedCAG100 were kind gifts of Professor Nancy Bonini (University of Pennsylvania, USA). The gmr-GAL4 fly line was obtained from Bloomington Drosophila Stock Center. For pseudopupil assay, third instar larvae were fed with various amount of respective peptides dissolved in 2% sucrose solution for 2 hr and then continued to culture in standard fly food at 21.5° C.^38. Pseudopupil assay was performed on 12 day-old adult flies as mentioned previously^39. Images were captured by SPOT Insight CCD camera controlled by the SPOT Advanced software (Diagnostic instruments Inc.). Image processing was performed using the Adobe Photoshop CS software (Adobe). Each experiment was repeated at least 3 times (n=10 fly heads), and consistent results were obtained. For viability test of wild-type flies from egg to adult stage, eggs born within 5 hr were collected and cultured in fly food containing 10 or 50 μM of respective peptides at 21.5° C. Viability from egg-to-adult was calculated as the number of adult flies collected divided by the number of eggs examined. Each experiment was repeated for three times (at least 130 eggs were examined in each group). Two batches of independently synthesized peptides were used in the experiments.

Kd (MJDCAG78 RNA)	Substance	also measured
233 ± 98.9 µM	H-Asp-Gly-Lys-Ser-Lys-Gly-Ile-Ala-Tyr-Ile-Glu-Phe-Lys-tPNA-cPNA-gPNA-NH2 (DGKSKGIAYIEFK[tPNA][cPNA][gPNA]-NH2; also: Asp N-terminal amino group replaced by hydrogen) [P3V23]	
9.93 ± 2.19 µM	H-Asp-Gly-Lys-Ser-Lys-Gly-Ile-tPNA-*-Ile-Glu-Phe-Lys-NH2 (H-DGKSKGI[tPNA]IEFK-NH2; not fully specified (residue 8); also: Asp N-terminal amino group replaced by hydrogen) [P3V12]	
8.28 ± 2.27 µM	H-aPNA-**-Lys-Ser-Lys-Gly-Ile-Ala-Tyr-Ile-Glu-Phe-Lys-NH2 (H-[aPNA]KSKGIAYIEFK-NH2; not fully specified (residue 1); printed as H-aPNA-**-Lys-Ser-Lys-Gly-Ile-Ala-Tyr-Ile-Glu-Phe-Lys-NH2; also: N-terminal amino group replaced by hydrogen) [P3V25]	
10.8 ± 3.08 µM	H-cPNA-gPNA-tPNA-Asp-Gly-Lys-Ser-*-Gly-Ile-Ala-Tyr-Ile-Glu-Phe-Lys-NH2 (H-[cPNA][gPNA][tPNA]DGKSGIAYIEFK-NH2; not fully specified (residue 7); printed as H-cPNA-gPNA-tPNA-Asp-Gly-Lys-Ser-*-Gly-Ile-Ala-Tyr-Ile-Glu-Phe-Lys-NH2; also: N-terminal amino group replaced by hydrogen) [P3V13]	
8.85 ± 2.85 µM	H-gPNA-**-Lys-Ser-Lys-Gly-Ile-Ala-Tyr-Ile-Glu-Phe-Lys-NH2 (H-[gPNA]KSKGIAYIEFK-NH2; not fully specified (residue 1); printed as H-gPNA-**-Lys-Ser-Lys-Gly-Ile-Ala-Tyr-Ile-Glu-Phe-Lys-NH2; also: N-terminal amino group replaced by hydrogen) [P3V26]	
0.12 µM	H-tPNA-**-Lys-Ser-Lys-Gly-Ile-Ala-Tyr-Ile-Glu-Phe-Lys-NH2 (H-[tPNA]KSKGIAYIEFK-NH2; not fully specified (residue 1); printed as H-tPNA-**-Lys-Ser-Lys-Gly-Ile-Ala-Tyr-Ile-Glu-Phe-Lys-NH2; also: N-terminal amino group replaced by hydrogen) [P3V11]	
2.2 µM and 2.24 µM	H-tPNA-Asp-Gly-Lys-Ser-Lys-Gly-Ile-Ala-Tyr-Ile-Glu-Phe-Lys-NH2 ([tPNA]DGKSKGIAYIEFK-NH2; also: N-terminal amino group replaced by hydrogen) [P3V10]	
0.96 µM	Hi-cPNA-**-Lys-Ser-Lys-Gly-Ile-Ala-Tyr-Ile-Glu-Phe-Lys-NH2 (H-[cPNA][∗∗]KSKGIAYIEFK-NH2; not fully specified; printed as Hi-cPNA-**-Lys-Ser-Lys-Gly-Ile-Ala-Tyr-Ile-Glu-Phe-Lys-NH2; reading uncertain; also: N-terminal amino group replaced by hydrogen) [P3V24]	

Further lines, the substance ahead of its results:

Substance	Kd (MJDCAG78 RNA)	also measured
Ac-Asp-Gly-(Dap)-Ser-Lys-Gly-Ile-Ala-Tyr-Ile-Glu-Phe-Lys-NH2 (Ac-DG[Dap]SKGIAYIEFK-NH2; SMILES CC[C@H](C)[C@H](NC(=O)CNC(=O)[C@H](CCCCN)NC(=O)[C@H](CO)NC(=O)[C@H](CN)NC(=O)CNC(=O)[C@H](CC(=O)O)NC(C)=O)C(=O)N[C@@H](C)C(=O)N[C@@H](Cc1ccc(O)cc1)C(=O)N[C@H](C(=O)N[C@@H](CCC(=O)O)C(=O)N[C@@H](Cc1ccccc1)C(=O)N[C@@H](CCCCN)C(N)=O)[C@@H](C)CC) [P3V18]		KD (MJDCAG78 RNA): No binding
Ac-Asp-Gly-(Orn)-Ser-Lys-Gly-Ile-Ala-Tyr-Ile-Glu-Phe-Lys-NH2 (Ac-DG[Orn]SKGIAYIEFK-NH2) [P3V16]		KD (MJDCAG78 RNA): No binding
Ac-Asp-Gly-(hArg)-Ser-Lys-Gly-Ile-Ala-Tyr-Ile-Glu-Phe-Lys-NH2 (Ac-DG[hArg]SKGIAYIEFK-NH2; SMILES CC[C@H](C)[C@H](NC(=O)CNC(=O)[C@H](CCCCN)NC(=O)[C@H](CO)NC(=O)[C@H](CCCCNC(=N)N)NC(=O)CNC(=O)[C@H](CC(=O)O)NC(C)=O)C(=O)N[C@@H](C)C(=O)N[C@@H](Cc1ccc(O)cc1)C(=O)N[C@H](C(=O)N[C@@H](CCC(=O)O)C(=O)N[C@@H](Cc1ccccc1)C(=O)N[C@@H](CCCCN)C(N)=O)[C@@H](C)CC) [P3V14]		KD (MJDCAG78 RNA): No binding
Ac-Asp-Gly-Lys-Ser-(Dap)-Gly-Ile-Ala-Tyr-Ile-Glu-Phe-Lys-NH2 (Ac-DGKS[Dap]GIAYIEFK-NH2; SMILES CC[C@H](C)[C@H](NC(=O)CNC(=O)[C@H](CN)NC(=O)[C@H](CO)NC(=O)[C@H](CCCCN)NC(=O)CNC(=O)[C@H](CC(=O)O)NC(C)=O)C(=O)N[C@@H](C)C(=O)N[C@@H](Cc1ccc(O)cc1)C(=O)N[C@H](C(=O)N[C@@H](CCC(=O)O)C(=O)N[C@@H](Cc1ccccc1)C(=O)N[C@@H](CCCCN)C(N)=O)[C@@H](C)CC) [P3V19]		KD (MJDCAG78 RNA): No binding
Ac-Asp-Gly-Lys-Ser-(Orn)-Gly-Ile-Ala-Tyr-Ile-Glu-Phe-Lys-NH2 (Ac-DGKS[Orn]GIAYIEFK-NH2) [P3V17]		KD (MJDCAG78 RNA): No binding
Ac-Asp-Gly-Lys-Ser-(hArg)-Gly-Ile-Ala-Tyr-Ile-Glu-Phe-Lys-NH2 (Ac-DGKS[hArg]GIAYIEFK-NH2; SMILES CC[C@H](C)[C@H](NC(=O)CNC(=O)[C@H](CCCCNC(=N)N)NC(=O)[C@H](CO)NC(=O)[C@H](CCCCN)NC(=O)CNC(=O)[C@H](CC(=O)O)NC(C)=O)C(=O)N[C@@H](C)C(=O)N[C@@H](Cc1ccc(O)cc1)C(=O)N[C@H](C(=O)N[C@@H](CCC(=O)O)C(=O)N[C@@H](Cc1ccccc1)C(=O)N[C@@H](CCCCN)C(N)=O)[C@@H](C)CC) [P3V15]		KD (MJDCAG78 RNA): No binding
Asp-(d-Ala)-Lys-Ser-Lys-Gly-Ile-Ala-Tyr-Ile-Glu-Phe-Lys (D[dA]KSKGIAYIEFK) [P3V1]		improvement of binding affinity to expanded CAG RNA over P3 (MJDCAG78 RNA): 4 fold
DGASKGIAYIEFK [P3MT1]	31.3 ± 8.29 µM	
DGKSAGIAYIEFK [P3MT2]	100 µM and 101 µM	
DGKSKGIAAIEFK [P3MT3]	16 µM and 16.6 µM	
DGKSKGIAWIEFK [P3V2]	2.2 µM and 2.21 µM	
DGKSKGIAYIEAK [P3MT4]	17 µM and 17.4 µM	
DGKSKGIAYIEFA [P3MT5]	51 µM and 51.3 µM	
DGKSKGIAYIEFK [P3V7]	3.67 ± 0.26 µM	
DGKSKGIAYIEFKDGKSKGIAYIEFK [P3V20, linear dimer of P3V8]		KD (MJDCAG78 RNA): did not show any binding; also recorded: No binding
DGKSKGIAYIEFKGDGKSKGIAYIEFK [P3V21, linear dimer of P3V8]		KD (MJDCAG78 RNA): did not show any binding; also recorded: No binding
DGKSKGIAYIEWK [P3V4]	4.44 ± 0.47 µM	improvement of binding affinity to expanded CAG RNA over P3 (MJDCAG78 RNA): ~4 fold
DGKSKGIAYIEYK [P3V3]	1.74 ± 0.67 µM	improvement of binding affinity to expanded CAG RNA over P3 (MJDCAG78 RNA): ~2 fold
DGRSRGIAYIEFK [P3V5]	~0.86 µM and 0.86 µM	improvement of binding affinity to expanded CAG RNA over P3 (MJDCAG78 RNA): ~10 fold; pseudopupil score (DsRedCAG100 flies; 1 μM treatment, 12 day-old flies): 3.64±0.22; suppression of neurotoxicity / retinal degeneration (DsRedCAG100 flies; DsRedCAG100 flies, in words): significantly suppressed neurotoxicity
DGRSRGIAYIEFK [P3V9]	2.34 ± 0.49 µM	
DGRSRGIAYIEFR [P3V6]	23 µM and 23.3 µM	
H-Asp-Gly-Lys-Ser-Lys-Gly-Ile-Ala-Tyr-Ile-Glu-Phe-Lys-tPNA-NH2 (DGKSKGIAYIEFK[tPNA]-NH2; also: Asp N-terminal amino group replaced by hydrogen) [P3V22]		KD (MJDCAG78 RNA): No binding
H-cptPNA-**-Lys-Ser-Lys-Gly-Ile-Ala-Tyr-Ile-Glu-Phe-Lys-NH2 (H-XKSKGIAYIEFK-NH2; not fully specified (residue 1); printed as H-cptPNA-**-Lys-Ser-Lys-Gly-Ile-Ala-Tyr-Ile-Glu-Phe-Lys-NH2; also: N-terminal amino group replaced by hydrogen) [P3V27]	11.2 ± 4.37 µM	
